Experimental data reported in patent US20120230951A1 (priority 2011, published 2012).
Where a name gives a salt, the structure may show the parent alone.

system: GT-1a pRLuc H771b 75 S/I subgenomic replicon cell line; assay: HCV GT-1a replicon luciferase reporter assay; assay type: cell-based; settings: Hepatitis C virus, GT1A, 72 h, read-out: GT-1a (IC50) (nM)
Text: Determination of compounds HCV GT1b inhibitory replicon activity using the replicon luciferase reporter assay
The 2209-23 cell line was developed at Roche by stable transfection of the hepatoma cell line Huh-7 with a GT-1b Con1 subgenomic bicistronic replicon as previously described. Subgenomic replicon cell line was established in cured Huh7 cells, obtained from R. Bartenschlager (J. Virol. 2003 March; 77 (5):3007-19) The GT-1a H77 subgenomic replicon vector pRLuc H771b 75 S/I, was created by replacing the non structural region of the GT-1b Con1 subgenomic replicon by the one of the H77 strain, except for the first 75 amino acids of the NS3 protein that are from GT-1b Con1 strain. (J. Virol. 2001 77:5352-59) The GT-1a pRLuc H771b 75 S/I subgenomic replicon cell line was established in cured Huh7 cells, obtained from R. Bartenschlager. (J. Virol. 2003 March; 77 (5):3007-19)
All the subgenomic replicon cell lines were cultured in Dulbecco's Modified Eagle Medium (DMEM-Glutamax™-I; Invitrogen Cat #10569-010). The medium was supplemented with 10% Fetal Bovine Serum (Invitrogen Cat #10082-147), 1% penicillin/streptomycin (Mediatech Cat #30-002-CI) and 500 μg/ml of G418 (Mediatech Cat #30-234-CI). Cells were maintained at 37° C. in a humidified 5% CO2 atmosphere.
2209-23 cells were plated at a cell density of 5000 cells per well in 96 well plates (Becton Dickinson, Cat #35 3296). Cells were plated in 90 μl of Dulbecco's Modified Eagle Medium (DMEM-Glutamax™-I), (Invitrogen Cat #10569-010) medium was supplemented with 5% Fetal Bovine Serum (Invitrogen Cat #10082-147), 1% penicillin/streptomycin (Mediatech Cat #30-002-CI). The pRluc H771b 75 S/I cells were plated in 96-well plate at 3000 cells/well in DMEM-Glutamax™-I containing 5% FBS and 1% penicillin/streptomycin in 90 μl final volume. Cells were allowed to equilibrate for 24 hours at 37° C. and 5% CO2 at which time compounds were added. Compounds (or medium as a control) were added 24 hours post-plating in 3 fold dilutions at a final DMSO concentration of 1% in 10 ul volume. Renilla luciferase reporter signal was read 72 hours after addition of compounds using the Renilla Luciferase Assay System (Promega, cat #E2820). EC50 values were defined as the compound concentration at which a 50% reduction in the levels of renilla luciferase reporter was observed as compared to control samples in the absence of compound and was determined by non-linear fitting of compound dose-response data. The EC50 was approximated if maximum percentage inhibition was less than 90% and more than 70%.

Row | Compound | IC50 [nM]
1 | COC(=O)N[C@H]1CCc2cccc3c2N(C1=O)[C@H](c1ncc(-c2cnc(-c4ccc5cc(-c6cnc([C@@H]7CCCN7C(=O)[C@@H](NC(=O)OC)C(C)C)[nH]6)ccc5c4)nc2)[nH]1)C3 [Compound I-17, ((2S,5S)-2-{5-[2-(6-{2-[(S)-1-((S)-2-Methoxycarbonylamino-3-methyl-butyryl)-pyrrolidin-2-yl]-3H-imidazol-4-yl}-naphthalen-2-yl)-pyrimidin-5-yl]-1H-imidazol-2-yl}-4-oxo-1,2,4,5,6,7-hexahydro-azepino[3,2,1-hi]indol-5-yl)-carbamic acid methyl ester] | 3.2
2 | COC(=O)N[C@H]1CCc2cccc3c2N(C1=O)[C@H](c1ncc(-c2cnc4cc(-c5ccc(-c6cnc([C@@H]7CCCN7C(=O)[C@@H](NC(=O)OC)C(C)C)[nH]6)cc5)ccc4c2)[nH]1)C3 [Compound I-18, ((2S,5S)-2-{5-[7-(4-{2-[(S)-1-((S)-2-Methoxycarbonylamino-3-methyl-butyryl)-pyrrolidin-2-yl]-3H-imidazol-4-yl}-phenyl)-quinolin-3-yl]-1H-imidazol-2-yl}-4-oxo-1,2,4,5,6,7-hexahydro-azepino[3,2,1-hi]indol-5-yl)-carbamic acid methyl ester trifluoacetic acid salt] | 21.6
3 | COC(=O)N[C@H]1CCc2cccc3c2N(C1=O)[C@H](c1ncc(-c2cnc4cc(-c5ccc(-c6[nH]c([C@@H]7CCCN7C(=O)[C@@H](NC(=O)OC)C(C)C)nc6Cl)cc5)ccc4c2)[nH]1)C3 [Compound I-20, ((2S,5S)-2-{5-[7-(4-{5-Chloro-2-[(S)-1-((S)-2-methoxycarbonylamino-3-methyl-butyryl)-pyrrolidin-2-yl]-3H-imidazol-4-yl}-phenyl)-quinolin-3-yl]-1H-imidazol-2-yl}-4-oxo-1,2,4,5,6,7-hexahydro-azepino[3,2,1-hi]indol-5-yl)-carbamic acid methyl ester trifluroacetic acid, trifluoroacetic acid salt] | 12
4 | COC(=O)N[C@H]1CCc2cccc3c2N(C1=O)[C@H](c1ncc(-c2ccc(-c4ccc5cc(-c6cnc([C@@H]7CCCN7C(=O)[C@@H](NC(=O)OC)C(C)C)[nH]6)ccc5n4)cc2)[nH]1)C3 [Compound I-21, ((2S,5S)-2-{4-[4-(6-{2-[(S)-1-((S)-2-Methoxycarbonylamino-3-methyl-butyryl)-pyrrolidin-2-yl]-1H-imidazol-4-yl}-quinolin-2-yl)-phenyl]-1H-imidazol-2-yl}-4-oxo-1,2,4,5,6,7-hexahydro-azepino[3,2,1-hi]indol-5-yl)-carbamic acid methyl ester trifluroacetic acid, trifluoroacetic acid salt] | 0.395
5 | COC(=O)N[C@H]1CCc2cccc3c2N(C1=O)[C@H](c1ncc(-c2ccc4nc(-c5ccc(-c6cnc([C@@H]7CCCN7C(=O)[C@@H](NC(=O)OC)C(C)C)[nH]6)cc5)ccc4c2)[nH]1)C3 [Compound I-22, ((2S,5S)-2-{5-[2-(4-{2-[(S)-1-((S)-2-Methoxycarbonylamino-3-methyl-butyryl)-pyrrolidin-2-yl]-1H-imidazol-4-yl}-phenyl)-quinolin-6-yl]-1H-imidazol-2-yl}-4-oxo-1,2,4,5,6,7-hexahydro-azepino[3,2,1-hi]indol-5-yl)-carbamic acid methyl ester trifluroacetic acid, trifluoroacetic acid salt] | 1.45
6 | COC(=O)N[C@H]1CCc2cccc3c2N(C1=O)[C@H](c1ncc(-c2ccc(-c4ccc5cc(-c6cnc([C@@H]7CCCN7C(=O)[C@@H](NC(=O)OC)C(C)C)[nH]6)ccc5c4)nc2)[nH]1)C3 [Compound I-23, ((2S,5S)-2-{4-[6-(6-{2-[(S)-1-((S)-2-Methoxycarbonylamino-3-methyl-butyryl)pyrrolidin-2-yl]-3H-imidazol-4-yl}-naphthalen-2-yl)-pyridin-3-yl]-1Himidazol-2-yl}-4-oxo-1,2,4,5,6,7-hexahydro-azepino[3,2,1-hi]indol-5-yl)-carbamic acid methyl ester di-trifluoroacetic acid salt] | 0.767
